Source: US20150374646A1, “TREATMENT OF CANCER AND OTHER CONDITIONS USING A TRANSCRIPTION FACTOR MODULATOR” (C & C BIOPHARMA, LLC, priority 2013, published 2015)
pIC50: −log10 of the molar value.

What was measured:
MV4-11 = assay: Leukemia cell growth inhibition, CellTiter-Glo (Example 1); type: cell-based; settings: Homo sapiens; MV4-11, B-myelomonocytic (Biphenotypic B-cell leukemia); 72 hours
Experimental: (§2) Various human leukemia cells were grown to the logarithmic growth phase and seeded into 24-well plates. […] Treated cells were further incubated for 72 hours and then were examined for cell proliferation. Cell proliferation was determined using the CellTiter-Glo Luminescence Cell Viability assay (Promega Corporation, Madison, Wis.) according to the manufacturer's protocol. The calculated inhibition rate was determined with the following formula: Inhibition rate (%)=(1−Luminescence of experimental group/Luminescence of control group)×100. IC50 is the calculated concentration of a compound needed to inhibit half of the maximum cell growth (equivalent to cell growth in control group) based on the corresponding dose-response curve under the described experimental conditions.

Nalm-6 = assay: as above; type: cell-based, human
Experimental: as §2

BaF3 BCR-ABL = assay: as above; type: cell-based; settings: Mouse cell line with BCR-ABL, 72 hours
Experimental: as §2

K562 cells = assay: Subcutaneous K562 (CML) tumor growth in SCID mice (Example 6); type: in vivo; settings: for Average body weight, End point / Average body weight, Initial / Tumor size / Tumor weight: x ± s; for Average body weight, Initial: initial (before treatment)
Experimental: Male Severe Combined Immunodeficiency (SCID) mice that were 4-6 weeks old were used in the experiment. The mice were fed under specific pathogen free (SPF) conditions. Food and water were available to the mice at will. A suspension of 8×10^6 chronic myelogenous leukemia K562 cells (0.2 mL) was inoculated subcutaneously into the right back of the SCID mice.
The general conditions of the mice and the growth of the transplanted tumor were monitored. […] The control group received an intraperitoneal injection (IP) of 0.2 mL solvent (20% DMSO, 80% of 20% w/v (2-hydroxypropyl)-β-cyclodextrin made in PBS). […] The YT30 treated groups received either intraperitoneal injection of 50 mg/kg/day of YT30 (0.2 mL in volume) suspended in solvent (20% DMSO, 80% of 20% w/v (2-hydroxypropyl)-β-cyclodextrin made in PBS) or oral gavage of 90 mg/kg/day YT30 in solvent (Cremophor RH40:TW80:PEG400 (2:1:1)). Frequency of the administration was once per day and the experiment lasted 16 days after initiation of the treatment.
The body weights of the mice were recorded prior to the start of treatment and twice every week thereafter. Each mouse of every group was monitored daily for any other symptoms of side effects including change in behavior, activity or posture, areas of redness and swelling, and food and water withdrawal. Caliper measurements of the longest perpendicular tumor diameters were performed every 2 days to estimate the tumor volume; the following formula: 4π/3×(width/2)^2×(length/2) was used to calculate the three-dimensional volume of an ellipse. The tumor inhibition rate was calculated according to tumor volume: Tumor inhibition rate by size (%)=(Tumor volume of the control group−Tumor volume of the treated group)/Tumor volume of the control group×100. The SCID mice were euthanized 2 hours after the final injection and the subcutaneous tumor nodules were taken out intact and weighed. The tumor inhibition rate was calculated again according to tumor weight: Tumor inhibition rate by weight (%)=(Tumor weight of the control group−Tumor weight of the treated group)/Tumor weight of the control group×100.

MOLT-4 = assay: Leukemia cell growth inhibition, CellTiter-Glo (Example 1); type: cell-based; settings: Homo sapiens; MOLT-4, ALL (T-cell); 72 hours
Experimental: as §2

K562R = assay: as above; type: cell-based; settings: Homo sapiens, K-562R, CML (Gleevec resistant), 72 hours
Experimental: as §2

SR = assay: as above; type: cell-based; settings: Homo sapiens, Lymphoma, 72 hours
Experimental: as §2

RCH-HCV = assay: Cancer cell line growth inhibition, CellTiter-Glo (Example 3); type: cell-based; settings: Homo sapiens, Leukemia, 72 hours
Experimental: (§1) YT30 was tested for growth inhibition against 67 human cancer cell lines derived from diverse tissues including the National Cancer Institute human cancer cell lines (NCI-60). […] Cells in different wells were treated with various concentrations of YT30, YT86, YT88, or YT128. […] Cell viabilities were determined by the CellTiter-Glo Luminescence Cell Viability assay kit (Promega Corporation, Madison, Wis.) according to manufacturer's protocol.

OVCAR-8 = assay: as above; type: cell-based; settings: Homo sapiens, Ovary, 72 hours
Experimental: as §1

MCF7 = assay: as above; type: cell-based; settings: Homo sapiens, Breast, 72 hours, read-out: IC50
Experimental: as §1

PC-3 = assay: as above; type: cell-based; settings: Homo sapiens, Prostate, 72 hours
Experimental: as §1

HCT116 = assay: as above; type: cell-based; settings: Homo sapiens, HCT-116, Colon, 72 hours
Experimental: as §1

EKVX = assay: as above; type: cell-based; settings: Homo sapiens, NSCLC, 72 hours
Experimental: as §1

A498 = assay: as above; type: cell-based; settings: Homo sapiens, Renal, 72 hours, read-out: IC50
Experimental: as §1

SK-MEL-2 = assay: as above; type: cell-based; settings: Homo sapiens, Melanoma, 72 hours
Experimental: as §1

HL60 = assay: as above; type: cell-based; settings: Homo sapiens, HL-60, Leukemia, 72 hours, read-out: IC50
Experimental: as §1

MDA-MB231 = assay: as above; type: cell-based; settings: Homo sapiens, MDA-MB-231; Breast, MDA-MB231; 72 hours; read-out: IC50
Experimental: as §1

SEM cells = assay: as above; type: cell-based; settings: Homo sapiens, Leukemia, 72 hours
Experimental: as §1

OVCAR-3 = assay: as above; type: cell-based; settings: Homo sapiens, Ovary, 72 hours, read-out: IC50
Experimental: as §1

M14 = assay: as above; type: cell-based; settings: Homo sapiens, Melanoma, 72 hours
Experimental: as §1

UACC-62 = assay: as above; type: cell-based; settings: Homo sapiens, Melanoma, 72 hours
Experimental: as §1

OVCAR-5 = assay: as above; type: cell-based; settings: Homo sapiens, Ovary, 72 hours, read-out: IC50
Experimental: as §1

K562 = assay: as above; type: cell-based; settings: Homo sapiens, Leukemia, 72 hours, read-out: IC50
Experimental: as §1

TK-10 = assay: as above; type: cell-based; settings: Homo sapiens, Renal, 72 hours, read-out: IC50
Experimental: as §1

REH = assay: Leukemia cell growth inhibition, CellTiter-Glo (Example 1); type: cell-based, human; settings: REH cells, 4 μM
Experimental: as §2

[1] = YT30 50 mg/kg i.p. × 16 days, SCID mice, K562 tumor
[2] = YT30 90 mg/kg p.o. × 16 days, SCID mice, K562 tumor

In the case of `Nc1ccccc1NC(=O)CCCCCC(=O)Nc1cccc(Br)c1` [YT30], the pIC50 (MV4-11) was 5.39, the pIC50 (Nalm-6; Homo sapiens, NALM-6, ALL (B-cell), 72 hours) was 5.63 and the “Growth inhibition (FIG. 1)” value (Nalm-6; Nalm-6 cells, 4 μM) was “significantly inhibit cell growth”. For the same compound, the pIC50 (BaF3 BCR-ABL) was 5.47, the Body weight change (K562 cells; [1]) was −8.67% and the “Tumor growth inhibition by size” value (K562 cells; [1]) was 44.07%. The “Tumor growth inhibition by weight” value (K562 cells; [1]) was 40.76%, the “Average body weight, End point” value (K562 cells; [1]) was 16.75 ± 1.57 g and the “Average body weight, Initial” value (K562 cells; [1]) was 18.34 ± 0.73 g. The Tumor size (K562 cells; [1]) was 1741.11 ± 1218.90 mm^3, the Tumor weight (K562 cells; [1]) was 2.16 ± 1.86 g and the Body weight change (K562 cells; [2]) was −5.30%. The “Tumor growth inhibition by size” value (K562 cells; [2]) was 41.77%, the “Tumor growth inhibition by weight” value (K562 cells; [2]) was 33.17% and the “Average body weight, End point” value (K562 cells; [2]) was 17.70 ± 2.03 g. The “Average body weight, Initial” value (K562 cells; [2]) was 18.69 ± 1.36 g, the Tumor size (K562 cells; [2]) was 1812.71 ± 581.68 mm^3 and the Tumor weight (K562 cells; [2]) was 2.44 ± 0.92 g. The “Tumor growth inhibition by weight” value (K562 cells; intraperitoneal 50 mg/kg/day, 16 days of treatment) was 40.76%, the “Tumor growth inhibition by weight” value (K562 cells; oral gavage 90 mg/kg/day, 16 days of treatment) was 33.17% and the pIC50 (MOLT-4) was 5.95. For the same compound, the pIC50 (K562R) was 5.49, the pIC50 (SR) was 5.16 and the pIC50 (RCH-HCV) was 6.10. For the same compound, the pIC50 (OVCAR-8) was 5.17, the pIC50 (MCF7) was 5.16 and the pIC50 (PC-3) was 5.01. It also gave a pIC50 (HCT116) of 4.89, a pIC50 (EKVX) of 5.34 and a pIC50 (A498) of 4.86. The pIC50 (SK-MEL-2) was 5.34, the pIC50 (HL60) was 5.98 and the pIC50 (MDA-MB231) was 4.85. The pIC50 (SEM cells) was 5.94, the pIC50 (OVCAR-3) was 5.04 and the pIC50 (M14) was 5.21. The pIC50 (UACC-62) was 5.28, the pIC50 (OVCAR-5) was 4.92 and the pIC50 (K562) was 5.74. The pIC50 (TK-10) was 4.79 and the “Growth inhibition (FIG. 1)” value (REH) was “significantly inhibit cell growth”.
